Source: patent US20100216706A1, “Ghrelin Protects Substantia Nigra Dopamine Neurons” (priority 2007, published 2010)
Values joined by “and” are separate entries in the source; they are usually repeats but may differ in a detail not shown here. Equal entries are not always repeated. *: point of attachment. Octyl = CCCCCCCC*

What was measured:
[1] = Matsumoto et al., 2001; cited from earlier work
[2] = target: growth hormone secretagogue receptor 1a (GHSR) on SNpc dopamine neurons, species of the tissue not stated for the experiment (mouse and/or rat); assay: cell-based or functional assay
[3] = tested on: TH neurons in the SNpc; assay: MPTP-induced TH cell loss in the SNpc (stereology, optical fractionator); assay type: in vivo, mice
From the text: (§1) Control animals were given saline. Animals were sacrificed and perfused 7 days later and processed for immunohistochemistry or HPLC for dopamine (DA) and metabolites. n=8-10 for ghrelin wt and ko mice; n=6 for GHSR wt/wt, homo/wt and homo/TG.
TH cell quantification: Free floating sections were stained with TH (1:5000, Chemicon International) and visualized with DAB using standard procedures.
Unbiased stereology methods were used to quantify TH immunoreactive cells in the SNpc. Cells were visualized by a Zeiss microscope and relayed via a MicroFibre digital camera (www(dot)optronics(dot)com) to a computer where they were counted using the optical fractionator with the sophisticated Stereolnvestigator software (MicroBrightField, Williston, Vt., USA). Every fourth section was collected through the SNpc, and TH cells were counted in grids randomly positioned by the software in the outlined counting area through all optical planes, thus creating a 3 dimensional counting area.
(§2) The observation that ghrelin promotes SNpc DA neuronal function, mitochondrial respiration and number raises the possibility that ghrelin may protect nigrostriatal dopaminergic system during increased cellular stress. […] In brief, mice were treated with daily IP injections of exogenous ghrelin (10 nmols) or saline for 14 days. Mice were injected immediately before the dark phase, and food was removed overnight since calorie intake and postprandial increases in glucose and insulin can suppress the action of ghrelin (Cummings et al., 2006, Physiol Behav 89: 71-84). Both ghrelin and saline treated mice were given 3 grams of standard chow the following morning at 9 am. […] After the subsequent 7 days of treatment (saline or ghrelin), TH immunoreactive neurons were counted blind by two independent researchers using the non-biased optical fractionator on the stereology program, Stereoinvestigator.

[4] = tested on: striatal dopamine; assay: Striatal dopamine after MPTP (HPLC); assay type: in vivo, mice; conditions: saline 14 days, MPTP on day 7
Procedure: as §1
The samples were subsequently thawed in 0.4 ml of chilled 0.1 M perchloric acid and sonicated. Aliquots were taken for protein quantification using a spectrophotometric assay. Other aliquots were centrifuged, and DA levels were measured in supernatants by high pressure liquid chromatography (HPLC) with electrochemical detection. Concentrations of DA and metabolites were expressed as ng/mg protein (mean±SEM).
as §2

[5] = Body weight gain after MPTP in ghrelin wt and ko mice; assay type: in vivo; conditions: from day 1 to day 7 after MPTP
From the text: as §1
Wt and ko mice treated with saline gained a similar amount of weight over the 7 days (wt saline 1.39±0.19 g vs ko saline 1.59±0.49 g).

5-aminopentanoyl-Ser(Octyl)-Phe-Leu-aminoethylamide ({5‑aminopentanoyl}-Ser(Octyl)-Phe-Leu-aminoethylamide; also: acylation site at position 3; listed as Homo sapiens)
Ghrelin activity [1]: potent ghrelin activity

ghrelin (unlabeled, Phoenix Pharmaceuticals) (peptide)
action potential frequency of SNpc DA neurons (whole-cell current clamp, brain slices) [2]: 132 % of control

CN1CC=C(c2ccccc2)CC1 [MPTP, 1-methyl-4-phenyl-1,2,5,6 tetrahydropyridine]
TH-immunoreactive cells in SNpc, ghrelin−/− mice ([3]; MPTP 30 mg/kg IP, 7 days, ko saline 8580±78): 3691±550 | TH-immunoreactive cells in SNpc, ghrelin+/+ mice ([3]; MPTP 30 mg/kg IP, 7 days, wt saline 9105±342): 6688±610 | TH neurons in SNpc, GHSR homo/TG (TH-only) mice ([3]; MPTP, homo/TG saline 12293±1123): 9401±743 | TH neurons in SNpc, GHSR homo/wt (null) mice ([3]; MPTP, homo/wt saline 11590±1133): 6582±636 | TH neurons in SNpc, GHSR wt/wt mice ([3]; MPTP, wt/wt saline 11902±713): 9171±765 | Dopamine cell loss compared to controls, saline treatment after MPTP lesion ([3]; saline 14 days, MPTP on day 7): 49% | Total TH neurons in SNpc, sal/MPTP ([3]; wt mice, saline 14 days, MPTP 30 mg/kg IP on day 7, sal/sal 11283±342): 5750±432 | Loss of striatal dopamine vs controls, sal/MPTP [4]: 65% | Striatal dopamine concentration, sal/MPTP ([4]; sal/sal 147.4±10.2): 51.4±2.7 ng/mg protein | Body weight gain, ghrelin ko mice ([5]; ko saline 1.59±0.49): 1.37 ± 0.15 g | Body weight gain, ghrelin wt mice ([5]; wt saline 1.39±0.19): 2.16 ± 0.10 g and 2.17 ± 0.10 g
